Patent US20130324603A1, “PHARMACEUTICAL COMPOSITION FOR TREATING INFLAMMATION AND PAIN” (priority 2012, published 2013)

System: arachidonic acid-induced ear swelling
Test: topical arachidonic acid-induced ear swelling model in mice
Type: in vivo
Details: for % Inhibition of ear swelling: measured at 90 minutes, male ICR mice; for inhibition in the ear swelling induced by arachidonic acid relative to vehicle-treated group (in words): statistically significant, p<0.05
Experimental: The active compounds (methanesulfonylalkylnitriles, n=1-6), indomethacin (positive control), and vehicle were evaluated for anti-inflammatory activity in a topical arachidonic acid-induced ear swelling model in mice.
Methanesulfonylacetonitrile (n=1) was purchased from Aldrich. Methanesulfonylalkylnitriles, n=2-5 were prepared by a method modified from Hsi et al. (Scientia Sinica 1974, 17, 743-751) with 30% hydrogen peroxide as the oxidizing agent. 7-methanesulfonylheptanenitrile (n=6) was prepared according to Example 1. Each active compound and the positive control were dissolved in vehicle (ethanol/acetone 1:1).
Male ICR mice weighing 22±2 g were used and randomly divided; each group had 10 mice. Arachidonic Acid (0.5 mg in 20 μl of acetone:ethanol/1:1) was applied topically to the anterior and posterior surfaces of the right ear of each mice. Test substances and vehicle, as listed in Table 3 were similarly topically applied 30 min before and 15 min after arachidonic acid application. The thickness of the right ear and the left ear was measured and the difference calculated as an indication of the inflammation in the right ear. Ear swelling was measured by a Dyer model micrometer gauge at 60 and 90 minutes after arachidonic acid application as an index of inflammation. Percent inhibition was calculated according to the formula: Ic−It/Ic×100, where Ic and It refers to increase of ear thickness (mm) in control and treated mice, respectively. ANOVA and Dunnett's test were employed to ascertain significant difference between vehicle control and treated groups. Significance is set at P<0.05 level.

[1] = 375 mM in acetone:ethanol (1:1), 20 μL, 30 min before and 15 min after arachidonic acid

| SMILES | % Inhibition of ear swelling [1] | inhibition in the ear swelling induced by arachidonic acid relative to vehicle-treated group (in words) | % Inhibition of ear swelling (positive control, 14 mM (0.5% w/v), 0.1 mg/20 μL) |
| --- | --- | --- | --- |
| CS(=O)(=O)CCCC#N [4-methanesulfonylbutyronitrile] | 15% |  |  |
| CS(=O)(=O)CCCCCC#N [6-methanesulfonylhexanenitrile] | 8% |  |  |
| CS(=O)(=O)CCCCC#N [5-methanesulfonylpentanenitrile] | 24% | significant inhibition |  |
| COc1ccc2c(c1)c(CC(=O)O)c(C)n2C(=O)c1ccc(Cl)cc1 [Indomethacin, reference compound] |  |  | 53% |
| CS(=O)(=O)CC#N [Methanesulfonylacetonitrile, methanesulfonylacetonitrile] | 22% | significant inhibition |  |
| CS(=O)(=O)CCC#N [3-methanesulfonylpropionitrile] | 36% | significant inhibition |  |
| CS(=O)(=O)CCCCCCC#N [7-methanesulfonylheptanenitrile] | 46% | significant inhibition |  |
